Source: patent US12637500B2, “Tumor antigen peptide” (Niigata University, priority 2015, dated 2026)

Key:
HLA-A24 = HLA-A24 binding assay (MFI shift on T2-A24 cells); parameters: species or system human; details: for binding to HLA-A24: T2-A24 cells, MFI shift
Method: T2-A24 cells, which are HLA-A24-expressing T2 cells, were preincubated in a CO2 incubator at 27° C. overnight. The cells collected were resuspended in Opti-MEM and plated on a round bottom 96 well plate (Corning) with about 1×10^5 cells/200 μL per well. A subject peptide was added at concentrations of 0.33 μM, […], and 10 μM, and incubation was carried out in a CO2 incubator at 27° C. for 3 hours and subsequently at 37° C. for 2.5 hours. Subsequently, the cells were subjected to centrifugation (380 g, 5 minutes) as they were on the plate, resuspended in 100 μL of a C7709A2 monoclonal antibody-producing hybridoma culture supernatant, and incubated on ice for 45 to 60 minutes. The cells were washed with ice-cooled PBS and then incubated together with an FITC-conjugated goat anti-mouse IgG antibody (KPL, Gaithersburg, MD) on ice for 30 minutes. The cells were washed with ice-cooled PBS as they were on the plate, then resuspended in 1% formaldehyde and PBS, and analyzed by a FACScan (BD Biosciences, Mountain View, CA), and the mean fluorescence intensity (MFI) shift (fluorescence increase as a result of stabilization by binding peptide) due to an increase in the amount of stable HLA-A24 molecules was thus measured. A cell treated with nonbinding peptide GK12 (concentration 0 to 10 μM) has a constant MFI and it was used as a negative control.
The MFI shift (AMFI) for a peptide concentration of 1 μM was measured for 26 types of randomly selected peptides of the natural peptides obtained in Example 1 above. A score was also calculated for these peptides using NetMHC3.4, and correlation with ΔMFI was investigated.

human PBMC = assay: CTL induction from PBMC by peptide stimulation; assay type: cell-based; details: peptide 10 μg/mL, PBMC of HLA-A24-positive healthy controls, method of Example 5 (1)
Method: Peripheral blood was collected using a heparin-containing 50 ML syringe from HLA-A24-positive healthy controls who had given informed consent. The whole blood was layered in a 50 mL tube (Falcon) to which 13 mL of Lymphoprep (Nycomed) had been added, and subjected to centrifugation at 2000 rpm for 30 minutes. A PBMC layer precipitated on the Lymphoprep layer was recovered using a pipette and washed three times with PBS, thus giving human PBMC.
About 3×10^7 cells/plate of the human PBMC separated above and 10 mL of Hepes-modified RPMI1640 medium (Sigma) containing 2-mercaptoethanol (final concentration 55 μM), L-glutamine (final concentration 2 mM), as antibiotics streptomycin (final concentration 100 μg/mL) and penicillin G (final concentration 100 U/mL), and 5% serum component were placed in each well of a […] for cell culture (BECTON DIKINSON), and suspension cultured. PVT1-derived natural antigen peptide of SEQ ID No: 1 (hereinafter referred to as ‘HF10’) or SUV39H2-derived natural antigen peptide of SEQ ID No: 2 (hereinafter referred to as ‘RF8’) were added thereto at a concentration of 10 μg/mL. After culturing was carried out for 2 days, IL-2 was added at a final concentration of 50 U/mL, and culturing was carried out for a further 2 weeks. […]

Row | Substance | MFI of T2-A24 cells treated with peptide (HLA-A24; concentration 0 to 10 μM, negative control peptide) | binding to HLA-A24 (HLA-A24) | CTL induction (human PBMC)
1 | GK12: synthetic nonbinding peptide used as negative control for HLA-A24 binding (GYISPYFINTSK) [reference compound] | constant MFI | – | –
2 | RYGNVSHF [SEQ ID No: 2, SUV39H2-derived natural antigen peptide] | – | high binding | A plurality of CTL clones were induced
3 | KYVKDFHKF [SEQ ID No: 3, ZNF724P-derived natural peptide] | – | high binding | –
4 | VYTYIQSRF [SEQ ID No: 5, DYRK4-derived natural peptide] | – | high binding | –
5 | HWNDTRPAHF [SEQ ID No: 1, PVT1-derived natural antigen peptide] | – | high binding | A plurality of CTL clones were induced
6 | IFQGNVHNF [SEQ ID No: 4, SNRNP40-derived natural peptide] | – | high binding | –
